# Columns and labels:
# C. albicans (ATCC 90028) = assay: Minimum inhibitory concentration, in vitro broth microdilution assay (CLSI M27-A2); assay type: cell-based, Candida albicans; conditions: ATCC 90028, about 50% growth reduction, 2 days at 36° C., range tested 8-0.0078 μg/mL, values given as ranges; for MIC: Candida albicans, ATCC90028, 48 h, read-out: Candida albicans MIC
# Outline: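 Inoculum of 1×10^3 to 1×10^4 CFU/mL in RPMI-1640+MOPS, exposed to 11 two-fold serial compound concentrations at 2 percent final DMSO, per CLSI M27-A2. After 2 days at 36° C, wells scored visually for growth to give MIC; tested in duplicate.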
# A. fumigatus = A. fumigatus MIC at 100% growth inhibition (CLSI M38-A2); assay type: cell-based, Aspergillus fumigatus; conditions: 100% growth inhibition, range tested 8-0.0078 μg/mL, values given as ranges; for MIC: Aspergillus fumigatus, read-out: Aspergillus fumigatus MIC
# Protocol: A. fumigatus MICs were determined at 100% growth inhibition following CLSI guidelines at a concentration range of 8-0.0078 μg/mL (CLSI M38-A2).
SMILES,Candida albicans MIC (C. albicans (ATCC 90028)),Aspergillus fumigatus MIC (A. fumigatus),MIC (C. albicans (ATCC 90028)),MIC (A. fumigatus)
"CC[C@@H]([C@H](C)O)n1ncn(-c2ccc(N3CCN(c4ccc(-c5ccc(C(F)(F)[C@](O)(Cn6cnnn6)c6ccccc6F)nc5)cc4)CC3)cn2)c1=O [102(+), 4-(5-(4-(4-(6-((R)-1,1-difluoro-2-(2-fluorophenyl)-2-hydroxy-3-(1H-tetrazol-1-yl)propyl)pyridin-3-yl)phenyl)piperazin-1-yl)pyridin-2-yl)-2-((2S,3S)-2-hydroxypentan-3-yl)-2,4-dihydro-3H-1,2,4-triazol-3-one]",≤0.0078 to 0.010 µg/mL,0.25 to 1.0 µg/mL,–,–
"O=c1n(-c2ccc(N3CCN(c4ccc(-c5ccc(C(F)(F)[C@](O)(Cn6cnnn6)c6ccc(F)cc6F)nc5)cc4)CC3)cn2)cnn1CC(F)(F)F [Example 87, (R)-4-(5-(4-(4-(6-(2-(2,4-difluorophenyl)-1,1-difluoro-2-hydroxy-3-(1H-tetrazol-1-yl)propyl)pyridin-3-yl)phenyl)piperazin-1-yl)pyridin-2-yl)-2-(2,2,2-trifluoroethyl)-2,4-dihydro-3H-1,2,4-triazol-3-one]",–,–,0.0078 to 0.01 µg/mL,0.062 to 0.25 µg/mL
"OC(c1ccc(N2CCN(c3ccc(-c4ccc(C(F)(F)C(O)(Cn5cnnn5)c5cc(F)ccc5F)nc4)cc3)CC2)cc1)C(F)(F)F (stereo not drawn) [15(−), 2-(2,5-difluorophenyl)-1,1-difluoro-3-(1H-tetrazol-1-yl)-1-(5-(4-(4-(4-(2,2,2-trifluoro-1-hydroxyethyl)phenyl)piperazin-1-yl)phenyl)pyridin-2-yl) propan-2-ol]",0.10 to 1.0 µg/mL,>8 µg/mL,–,–
"Cn1c(N2CCN(c3ccc(-c4ccc(C(F)(F)[C@](O)(Cn5cnnn5)c5ccc(F)cc5F)nc4)cc3)CC2)nc2ccc(C#N)cc21 [Example 79, (R)-2-(4-(4-(6-(2-(2,4-difluorophenyl)-1,1-difluoro-2-hydroxy-3-(1H-tetrazol-1-yl)propyl)pyridin-3-yl)phenyl)piperazin-1-yl)-1-methyl-1H-benzo [d] imidazole-6-carbonitrile]",–,–,0.0078 to 0.01 µg/mL,0.25 to 1 µg/mL
"CCC(O)c1ccc(N2CCN(c3ccc(-c4ccc(C(F)(F)[C@](O)(Cn5cnnn5)c5ccc(F)cc5F)nc4)cc3)CC2)cn1 (stereo partly drawn) [Example 48, 1-(5-(4-(4-(6-((R)-2-(2,4-difluorophenyl)-1,1-difluoro-2-hydroxy-3-(1H-tetrazol-1-yl)propyl)pyridin-3-yl)phenyl)piperazin-1-yl)pyridin-2-yl)propan-1-ol]",–,–,0.01 to 0.1 µg/mL,0.25 to 1 µg/mL
"N#Cc1ccc(C2CCN(c3ccc(-c4ccc(C(F)(F)[C@](O)(Cn5cnnn5)c5ccc(F)cc5F)nc4)cc3)CC2)cc1 [Example 26, (R)-4-(1-(4-(6-(2-(2,4-difluorophenyl)-1,1-difluoro-2-hydroxy-3-(1H-tetrazol-1-yl)propyl)pyridin-3-yl)phenyl)piperidin-4-yl) benzonitrile]",–,–,0.0078 to 0.01 µg/mL,0.25 to 1 µg/mL
"Cn1ncn(-c2ccc(N3CCN(c4ccc(-c5ccc(C(F)(F)[C@](O)(Cn6cnnn6)c6ccc(F)cc6F)nc5)cc4)CC3)cc2)c1=O [Example 53, (R)-4-(4-(4-(4-(6-(2-(2,4-difluorophenyl)-1,1-difluoro-2-hydroxy-3-(1H-tetrazol-1-yl)propyl)pyridin-3-yl)phenyl)piperazin-1-yl)phenyl)-2-methyl-2,4-dihydro-3H-1,2,4-triazol-3-one]",–,–,0.01 to 0.1 µg/mL,0.062 to 0.25 µg/mL
"CC(O)c1ccc(N2CCN(c3ccc(-c4ccc(C(F)(F)[C@](O)(Cn5cnnn5)c5ccc(F)cc5F)nc4)cc3)CC2)cc1 (stereo partly drawn) [Example 56, (2R)-2-(2,4-difluorophenyl)-1,1-difluoro-1-(5-(4-(4-(4-(1-hydroxyethyl)phenyl)piperazin-1-yl)phenyl)pyridin-2-yl)-3-(1H-tetrazol-1-yl) propan-2-ol]",–,–,0.01 to 0.1 µg/mL,0.25 to 1 µg/mL
"OC(c1cn(-c2ccc(N3CCN(c4ccc(-c5ccc(C(F)(F)C(O)(Cn6cnnn6)c6ccccc6F)nc5)cc4)CC3)cc2)nn1)C(F)(F)F (single isomer, unassigned; (-)) [108(−)]",>8 µg/mL,>8 µg/mL,–,–

# — patent publication US10464922B2, “Metalloenzyme inhibitor compounds” (NQP 1598 LTD., priority 2015, dated 2019)
